Data on 31 compounds can be found in patent US20240166652A1, “MODULATORS OF THE INTEGRATED STRESS PATHWAY” (Calico Life Sciences LLC, priority 2017, published 2024).

The test system of this test is ATF4 luciferase reporter in HEK293T cells. Briefly: ATF4-Luc assay (ATF4 luciferase reporter, tunicamycin-treated HEK293T cells). The class given is cell-based, human. To be noted: Homo sapiens, HEK-293T; HEK293T cells carrying the ATF4 luciferase reporter, 1 μg/mL tunicamycin, 7 hours. (In general: In a reporter assay the amount or activity of a reporter protein is the signal.)
Take `O=C(COc1ccc(Cl)c(F)c1)NC12CC(NC(=O)COc3ccccn3)(C1)C2` [Compound 402, 2-(4-chloro-3-fluorophenoxy)-N-(3-{2-[(pyridin-2-yl)oxy]acetamido}bicyclo[1.1.1]pentan-1-yl)acetamide]: the EC50 is 50 to 250 nM.
Consider `O=C(COc1cccnc1)NC12CCC(NC(=O)COc3ccc(Cl)c(F)c3)(C1)C2` [Compound 403, 2-(4-chloro-3-fluorophenoxy)-N-(4-{2-[(pyridin-3-yl)oxy]acetamido}bicyclo[2.1.1]hexan-1-yl)acetamide], for which the half-maximal effective concentration (EC50) lay within 500 to 2000 nM.
`O=C(COc1ccc(Cl)c(F)c1)NC12CCC(NC(=O)COc3ccccn3)(C1)C2` [Compound 404, 2-(4-chloro-3-fluorophenoxy)-N-(4-{2-[(pyridin-2-yl)oxy]acetamido}bicyclo[2.1.1]hexan-1-yl)acetamide]: the 50% effective concentration (EC50) was in the range of 500 to 2000 nM.
As for `O=C(COc1cccnc1)NC12CC(NC(=O)COc3ccc(Cl)c(Cl)c3)(C1)C2` [Compound 405, 2-(3,4-dichlorophenoxy)-N-(3-{2-[(pyridin-3-yl)oxy]acetamido}bicyclo[1.1.1]pentan-1-yl)acetamide], the 50% effective concentration (EC50) lay within 50 to 250 nM.
For the compound `O=C(COc1ccc(Cl)c(F)c1)NC12CC(NC(=O)COc3c(F)cc(F)cc3F)(C1)C2` [Compound 406, 2-(4-chloro-3-fluorophenoxy)-N-{3-[2-(2,4,6-trifluorophenoxy)acetamido]bicyclo[1.1.1]pentan-1-yl}acetamide], the concentration giving a half-maximal response (EC50) is 10 to 50 nM.
Turning to `CC(C)(O)c1ccc(OCC(=O)NC23CC(NC(=O)COc4ccc(Cl)c(F)c4)(C2)C3)cc1` [Compound 407, 2-(4-chloro-3-fluorophenoxy)-N-(3-{2-[4-(2-hydroxypropan-2-yl)phenoxy]acetamido}bicyclo[1.1.1]pentan-1-yl)acetamide], the EC50 was 50 to 250 nM.
The result for `O=C(COc1ccc(F)cc1)NC12CC(NC(=O)COc3ccc(Cl)c(F)c3)(C1)C2` [Compound 408, 2-(4-chloro-3-fluorophenoxy)-N-{3-[2-(4-fluorophenoxy)acetamido]bicyclo[1.1.1]pentan-1-yl}acetamide] reads below 10 nM.
Regarding `O=C(COc1ccc(Cl)c(F)c1)NC12CC(NC(=O)COc3ccc(F)cc3F)(C1)C2` [Compound 409, 2-(4-chloro-3-fluorophenoxy)-N-{3-[2-(2,4-difluorophenoxy)acetamido]bicyclo[1.1.1]pentan-1-yl}acetamide], the concentration for a half-maximal effect (EC50) was below 10 nM.
With `O=C(COc1cccc(F)c1)NC12CC(NC(=O)COc3ccc(Cl)c(F)c3)(C1)C2` [Compound 410, 2-(4-chloro-3-fluorophenoxy)-N-{3-[2-(3-fluorophenoxy)acetamido]bicyclo[1.1.1]pentan-1-yl}acetamide], the half-maximal effective concentration (EC50) was below 10 nM.
On to `O=C(COc1ccc(Cl)c(F)c1)NC12CC(NC(=O)COc3ccccc3F)(C1)C2` [Compound 411, 2-(4-chloro-3-fluorophenoxy)-N-{3-[2-(2-fluorophenoxy)acetamido]bicyclo[1.1.1]pentan-1-yl}acetamide], for which the EC50 lay within 10 to 50 nM.
As to `COc1cc(Cl)ccc1OCC(=O)NC12CC(NC(=O)COc3ccc(Cl)c(F)c3)(C1)C2` [Compound 412, 2-(4-chloro-3-fluorophenoxy)-N-{3-[2-(4-chloro-2-methoxyphenoxy)acetamido]bicyclo[1.1.1]pentan-1-yl}acetamide], the half-maximal effective concentration (EC50) is 50 to 250 nM.
Take `CC(O)(c1ccc(OCC(=O)NC23CC(NC(=O)COc4ccc(Cl)c(F)c4)(C2)C3)cc1)C(F)(F)F` (stereo not shown) [Compound 413, 2-(4-chloro-3-fluorophenoxy)-N-(3-{2-[4-(1,1,1-trifluoro-2-hydroxypropan-2-yl)phenoxy]acetamido}bicyclo[1.1.1]pentan-1-yl)acetamide]: the EC50 is 250 to 500 nM.
For `O=C(COc1ccc(Cl)c(F)c1)NC12CC(NC(=O)COc3cc(F)c(F)cc3F)(C1)C2` [Compound 414, 2-(4-chloro-3-fluorophenoxy)-N-{3-[2-(2,4,5-trifluorophenoxy)acetamido]bicyclo[1.1.1]pentan-1-yl}acetamide], the EC50 is below 10 nM.
The result for `O=C(COc1ccc(Cl)c(F)c1)NC12CC(NC(=O)COc3ccc(OC(F)(F)F)c(F)c3)(C1)C2` [Compound 415, 2-(4-chloro-3-fluorophenoxy)-N-(3-{2-[3-fluoro-4-(trifluoromethoxy)phenoxy]acetamido}bicyclo[1.1.1]pentan-1-yl)acetamide] reads below 10 nM.
Take `O=C(COc1ccc(Cl)c(F)c1)NC12CC(NC(=O)COc3cc(F)c(F)c(F)c3)(C1)C2` [Compound 416, 2-(4-chloro-3-fluorophenoxy)-N-{3-[2-(3,4,5-trifluorophenoxy)acetamido]bicyclo[1.1.1]pentan-1-yl}acetamide]: the EC50 is below 10 nM.
On to `O=C(COc1ccc(Cl)c(F)c1)NC12CC(NC(=O)[C@@H](CO)Oc3ccc(Cl)c(F)c3)(C1)C2` [Compound 418, (2R)-2-(4-chloro-3-fluorophenoxy)-N-{3-[2-(4-chloro-3-fluorophenoxy)acetamido]bicyclo[1.1.1]pentan-1-yl}-3-hydroxypropanamide], for which the EC50 was 10 to 50 nM.
To `O=C(COc1ccc(Cl)c(F)c1)NC12CCC(NC(=O)COc3ccc(Cl)c(F)c3)(CC1)[C@@H](c1nn[nH]n1)C2` [Compound 419, N,N′-[(2S)-2-(2H-tetrazol-5-yl)bicyclo[2.2.2]octane-1,4-diyl]bis[2-(4-chloro-3-fluorophenoxy)acetamide]] belongs 50 to 250 nM; to `Cc1noc([C@H]2CC3(NC(=O)COc4ccc(Cl)c(F)c4)CCC2(NC(=O)COc2ccc(Cl)c(F)c2)CC3)n1` [Compound 420, N,N′-[(2S)-2-(3-methyl-1,2,4-oxadiazol-5-yl)bicyclo[2.2.2]octane-1,4-diyl]bis[2-(4-chloro-3-fluorophenoxy)acetamide]], below 10 nM; to `COCC(Oc1ccc(Cl)c(F)c1)C(=O)NC12CC(NC(=O)COc3ccc(Cl)c(F)c3)(C1)C2` (stereo not shown) [Compound 421, 2-(4-chloro-3-fluorophenoxy)-N-{3-[2-(4-chloro-3-fluorophenoxy)acetamido]bicyclo[1.1.1]pentan-1-yl}-3-methoxypropanamide], 50 to 250 nM.
For the compound `CC(C)(O)c1ccc(OCC(=O)NC23CC(NC(=O)COc4ccc(Cl)c(Cl)c4)(C2)C3)cc1` [Compound 422, 2-(3,4-dichlorophenoxy)-N-(3-{2-[4-(2-hydroxypropan-2-yl)phenoxy]acetamido}bicyclo[1.1.1]pentan-1-yl)acetamide], the EC50 is 250 to 500 nM.
Consider `Cc1cc(CC(=O)NC23CCC(NC(=O)COc4ccc(Cl)c(F)c4)(CC2)C(O)C3)on1` (stereo not shown) [Compound 423, 2-(4-chloro-3-fluorophenoxy)-N-{2-hydroxy-4-[2-(3-methyl-1,2-oxazol-5-yl)acetamido]bicyclo[2.2.2]octan-1-yl}acetamide], for which the 50% effective concentration (EC50) is above 2000 nM.
Turning to `O=C(/C=C/c1ccc(OC(F)(F)F)cn1)NC12CCC(NC(=O)COc3ccc(Cl)c(F)c3)(C1)C2` [Compound 425, (2E)-N-{4-[2-(4-chloro-3-fluorophenoxy)acetamido]bicyclo[2.1.1]hexan-1-yl}-3-[5-(trifluoromethoxy)pyridin-2-yl]prop-2-enamide], the concentration for a half-maximal effect (EC50) lay in the range of 500 to 2000 nM.
Turning to `O=C(COc1ccc(Cl)c(F)c1)NC12CC(NS(=O)(=O)Cc3ccc(C(F)(F)F)cc3)(C1)C2` [Compound 426, 2-(4-chloro-3-fluorophenoxy)-N-[3-({[4-(trifluoromethyl)phenyl]methanesulfonyl}amino)bicyclo[1.1.1]pentan-1-yl]acetamide], the 50% effective concentration (EC50) is 50 to 250 nM.
The result for `O=C(COc1ccc(Cl)c(F)c1)NC12CC(NS(=O)(=O)Cc3ccc(Cl)cc3)(C1)C2` [Compound 427, 2-(4-chloro-3-fluorophenoxy)-N-(3-{[(4-chlorophenyl)methanesulfonyl]amino}bicyclo[1.1.1]pentan-1-yl)acetamide] reads 500 to 2000 nM; that for `O=C(COc1ccc(Cl)c(F)c1)NC12CC(NS(=O)(=O)Cc3cccc(C(F)(F)F)c3)(C1)C2` [Compound 428, 2-(4-chloro-3-fluorophenoxy)-N-[3-({[3-(trifluoromethyl)phenyl]methanesulfonyl}amino)bicyclo[1.1.1]pentan-1-yl]acetamide], 500 to 2000 nM.
On to `O=C(COc1ccc(Cl)c(F)c1)NC12CCC(NS(=O)(=O)Cc3ccc(C(F)(F)F)cc3)(CC1)[C@@H](O)C2` [Compound 429, 2-(4-chloro-3-fluorophenoxy)-N-[(3S)-3-hydroxy-4-({[4-(trifluoromethyl)phenyl]methanesulfonyl}amino)bicyclo[2.2.2]octan-1-yl]acetamide], for which the 50% effective concentration (EC50) lay in the range of 50 to 250 nM.
Consider `O=C(COc1ccc(Cl)c(F)c1)NC12CCC(NS(=O)(=O)Cc3cccc(C(F)(F)F)c3)(CC1)[C@@H](O)C2` [Compound 430, 2-(4-chloro-3-fluorophenoxy)-N-[(3S)-3-hydroxy-4-({[3-(trifluoromethyl)phenyl]methanesulfonyl}amino)bicyclo[2.2.2]octan-1-yl]acetamide], for which the EC50 lay in the range of 500 to 2000 nM.
Take `O=C(COc1ccc(Cl)c(F)c1)NC12CC(NC(=O)Nc3ccc(Cl)cc3)(C1)C2` [Compound 431, 2-(4-chloro-3-fluorophenoxy)-N-(3-{[(4-chlorophenyl)carbamoyl]amino}bicyclo[1.1.1]pentan-1-yl)acetamide]: the EC50 lay in the range of 50 to 250 nM.
The result for `O=C(COc1ccc(Cl)c(F)c1)NC12CC(NC(=O)Nc3ccc(Cl)cc3O)(C1)C2` [Compound 432, 2-(4-chloro-3-fluorophenoxy)-N-(3-{[(4-chloro-2-hydroxyphenyl)carbamoyl]amino}bicyclo[1.1.1]pentan-1-yl)acetamide] reads 50 to 250 nM.
Turning to `Cc1ccc(OC(=O)NC23CCC(NC(=O)COc4ccc(Cl)c(F)c4)(CC2)CC3O)cc1` (stereo not shown) [Compound 433, 4-methylphenyl {4-[2-(4-chloro-3-fluorophenoxy)acetamido]-2-hydroxybicyclo[2.2.2]octan-1-yl}carbamate], the concentration giving a half-maximal response (EC50) is 50 to 250 nM.
Turning to `O=C(COc1ccc(Cl)c(F)c1)NC12CC(NC(=O)Oc3ccc(Cl)cc3)(C1)C2` [Compound 434, 4-chlorophenyl {3-[2-(4-chloro-3-fluorophenoxy)acetamido]bicyclo[1.1.1]pentan-1-yl}carbamate], the EC50 lay within 250 to 500 nM.

Broadly, the EC50 is the concentration needed to bring the measured effect to its halfway point.
